The record followed here is patent publication US6620828B2, “Thiazole compounds and pharmaceutical compositions for inhibiting protein kinases and methods for their use” (Agouron Pharmaceuticals, Inc., priority 1999, dated 2003).

Usually inhibition stands for the drop in the measured response relative to a control, in per cent. A word on the Ki: it is a measure of affinity in units of concentration, obtained from inhibition or displacement.

A value given as a limit tells only on which side of the number the result lay.

Assay type in all cases: biochemical
The target in one test is T1, CDK4/Cyclin D3 complex (Homo sapiens, UniProt P11802).
T1 construct: made in house; host or cells: insect cells co-infected with baculovirus vectors
The test is described as follows: CDK4/Cyclin D assay. As to conditions: for inhibition at 100 µM: at 100 (printed 100 or 100 μM). How it is done:
CDK4/Cyclin D Construct for Assay: A complex of human CDK4 and cyclin D3, or a complex of cyclin DI and a fusion protein of human CDK4 and glutathione-S-transferase (GST-CDK4), was purified using traditional biochemical chromatographic techniques from insect cells that had been co-infected with the corresponding baculovirus expression vectors.
(§1) CDK2/Cyclin A and CDK4/Cyclin D Assays
(§2) Cyclin-dependent kinase activity was measured by quantifying the enzyme-catalyzed, time-dependent incorporation of radioactive phosphate from [^32P]ATP into a recombinant fragment of the retinoblastoma protein. Unless noted otherwise, assays were performed in 96-well plates in a total volume of 50 μL, in the presence of 10 mM HEPES (N-[2-hydroxyethyl]piperazine-N′-[2-ethanesulfonic acid]) (pH 7.4), 10 mM MgCl2, 25 μM adenosine triphosphate (ATP), 1 mg/mL ovalbumin, 5 μg/mL leupeptin, 1 mM dithiothreitol, 10 mM β-glycerophosphate, 0.1 mM sodium vanadate, 1 mM sodium fluoride, 2.5 mM ethylene glycol-bis(β-aminoethyl ether)-N,N,N′N′-tetraacetic acid (EGTA), 2% (v/v) dimethylsulfoxide, and 0.03-0.2 μCi [^32P]ATP. The substrate (0.3-0.5 μg) was purified recombinant retinoblastoma protein fragment (Rb) (residues 386-928 of the native retinoblastoma protein; 62.3 kDa, containing the majority of the phosphorylation sites found in the native 106-kDa protein, as well as a tag of six histidine residues for ease of purification). Reactions were initiated with CDK2 (150 nM CDK2/Cyclin A complex) or CDK4 (50 nM CDK4/Cyclin D3 complex), incubated at 30° C., and terminated after 20 minutes by the addition of ethylenediaminetetraacetic acid EDTA) to 250 mM. The phosphorylated substrate was then captured on a nitrocellulose membrane using a 96-well filtration manifold, and unincorporated radioactivity was removed by repeated washing with 0.85% phosphoric acid. Radioactivity was quantified by exposing the dried nitrocellulose membranes to a phosphorimager. Apparent Ki values were measured by assaying enzyme activity in the presence of different compound concentrations and subtracting the background radioactivity measured in the absence of enzyme. The kinetic parameters (kcat, Km for ATP) were measured for each enzyme under the usual assay conditions by determining the dependence of initial rates on ATP concentration. The data were fit to an equation for competitive inhibition using Kaleidagraph (Synergy Software), or were fit to an equation for competitive tight-binding inhibition using the software KineTic (BioKin, Ltd.). Measured Ki values for known inhibitors against CDK4 and CDK2 agreed with published IC50 values. The specific activity of CDK4 was the same whether complexed to full-length cyclin D3 or the truncated Cyclin D3 construct; both complexes also yielded very similar Ki values for selected inhibitors.

A further test concerns the target CDK2/Cyclin A complex (Homo sapiens, UniProt P24941). Nature of the test: CDK2/Cyclin A assay.
Description: CDK2/Cyclin A Construct for Assay: CDK2 was purified using published methodology (Rosenblatt et al., J. Mol. Biol., 230, 1317-1319 (1993)) from insect cells that had been infected with a baculovirus expression vector. Cyclin A was purified from E. coli cells expressing full-length recombinant cyclin A, and a truncated cyclin A construct was generated by limited proteolysis and purified as described previously (Jeffrey et al., Nature, 376, 313-320 (Jul. 27, 1995)).
as §1, §2

In another test the target is T2, FL-CHK1 (Homo sapiens, UniProt O14757).
T2 construct: C-terminally His-tagged full-length human CHK1 (FL-CHK1); 6xHis (C); made in house; host or cells: baculovirus/insect cells
T2 sequence (O14757 1-476): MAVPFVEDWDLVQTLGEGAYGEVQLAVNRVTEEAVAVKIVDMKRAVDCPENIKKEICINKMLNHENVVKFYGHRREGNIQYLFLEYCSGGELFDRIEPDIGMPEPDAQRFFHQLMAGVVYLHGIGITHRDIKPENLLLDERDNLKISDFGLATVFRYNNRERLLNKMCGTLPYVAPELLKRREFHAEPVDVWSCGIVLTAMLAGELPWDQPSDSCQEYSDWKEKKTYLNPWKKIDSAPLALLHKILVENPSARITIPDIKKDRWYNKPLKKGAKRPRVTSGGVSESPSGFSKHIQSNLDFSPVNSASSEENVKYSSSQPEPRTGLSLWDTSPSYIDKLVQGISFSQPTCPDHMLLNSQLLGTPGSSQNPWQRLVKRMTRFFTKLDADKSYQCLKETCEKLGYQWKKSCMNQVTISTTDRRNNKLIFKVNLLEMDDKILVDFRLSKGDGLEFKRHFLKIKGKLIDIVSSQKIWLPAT
Nature of the test: CHK1 assay. As to conditions: 20 μM; combinatorial library compounds. The text has this:
CHK-1 Construct for Assay: C-terminally His-tagged full-length human CHK1 (FL-CHK1) was expressed using the baculovirus/insect cell system. It contains 6 histidine residues (6×His-tag) at the C-terminus of the 476 amino acid human CHK1. The protein was purified by conventional chromatographic techniques.
The production of ADP from ATP that accompanies phosphoryl transfer to the synthetic substrate peptide Syntide-2 ([…]) was coupled to oxidation of NADH using phosphoenolpyruvate (PEP) through the actions of pyruvate kinase (PK) and lactic dehydrogenase (LDH). The oxidation of NADH was monitored by following the decrease of absorbance at 340 nm (ε340=6.22 cm^−1 mM^−1) using a HP8452 spectrophotometer. Typical reaction solutions contained: […]; 0.15 mM NADH; 28 units of LDH/ml; 16 units of PK/ml; 3 mM DTT; 0.125 mM Syntide-2; 0.15 mM ATP; 25 mM MgCl2 in 50 mM TRIS, pH 7.5; and 400 mM NaCl. Assays were initiated with 10 nM of FL-CHK1. Ki values were determined by measuring initial enzyme activity in the presence of varying concentrations of test compounds. The data were analyzed using Enzyme Kinetic and Kaleidagraph software.

[1] abbreviates: 1.0 μM, combinatorial library compounds.

T1 sequence (P11802 whole entry): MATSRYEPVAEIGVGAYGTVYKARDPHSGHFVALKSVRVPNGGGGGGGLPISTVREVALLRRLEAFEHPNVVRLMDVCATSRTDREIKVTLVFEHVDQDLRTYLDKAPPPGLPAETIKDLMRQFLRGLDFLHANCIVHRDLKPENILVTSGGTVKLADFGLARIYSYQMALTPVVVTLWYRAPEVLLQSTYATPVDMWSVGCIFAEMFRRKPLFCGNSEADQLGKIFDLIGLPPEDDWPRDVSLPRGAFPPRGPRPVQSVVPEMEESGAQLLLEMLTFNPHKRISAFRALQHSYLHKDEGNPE
T1 sequence (P30281 whole entry partner): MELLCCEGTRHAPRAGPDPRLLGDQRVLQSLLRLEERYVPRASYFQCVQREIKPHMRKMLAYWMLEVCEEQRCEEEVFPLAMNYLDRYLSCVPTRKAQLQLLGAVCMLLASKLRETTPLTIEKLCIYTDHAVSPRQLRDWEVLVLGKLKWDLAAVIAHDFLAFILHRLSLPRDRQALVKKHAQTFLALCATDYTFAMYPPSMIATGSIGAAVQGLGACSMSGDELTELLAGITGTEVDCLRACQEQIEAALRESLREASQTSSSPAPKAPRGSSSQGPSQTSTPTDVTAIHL

For `CCOC(=O)c1ccc(-c2csc(-c3sc(Nc4cc(OC)c(OC)c(OC)c4)nc3N)n2)cc1` [A(11), 4-[4′-Amino-2′-(3,4,5-trimethoxy-phenylamino)-[2,5′]bithiazolyl-4-yl]-benzoic acid ethyl ester], the inhibition at 100 µM at CDK4/Cyclin D3 complex (Table 2) came to 33%.

Turning to `Nc1nc(Nc2ccc(S(N)(=O)=O)cc2)sc1-c1nccn1Cc1ccc(Cl)cc1` [G(8), 4-{4-Amino-5-[1-(4-chloro-benzyl)-1H-imidazol-2-yl]-thiazol-2-ylamino}-benzenesulfonamide], the inhibition at 100 µM at CDK4/Cyclin D3 complex (Table 2) was found to be 31%. The Ki at CDK2/Cyclin A complex (Table 2) turned out to be 18 µM.

Consider `Nc1nc(Nc2ccc(S(N)(=O)=O)cc2)sc1-c1nc(C(=O)Nc2ccccc2)cs1` [N(4), 4′-Amino-2′-(4-sulfamoyl-phenylamino)-[2,5′]bithiazolyl-4 carboxylic acid phenylamide], for which the Ki on CDK4/Cyclin D3 complex (Table 3) came out at 0.48 µM; on CDK2/Cyclin A complex (Table 3), 0.158 µM.

Turning to `Nc1csc(-c2sc(Nc3ccc(S(N)(=O)=O)cc3)nc2N)n1` [H(6), 4-(4,4′-Diamino-[2,5′]bithiazolyl-2′-ylamino)-benzenesulfonamide], the Ki on CDK4/Cyclin D3 complex (Table 2) is 1.2 µM; at CDK2/Cyclin A complex (Table 2) it was 0.2 µM.

For `Nc1nc(Nc2ccc(S(N)(=O)=O)cc2)sc1-c1nc(O)c(-c2ccccc2O)s1` [H(4), 4-[4′-Amino-4-hydroxy-5-(2-hydroxy-phenyl)-[2,5′]bithiazoly-2′-ylamino]-benzenesulfonamide], the Ki stood at 2.1 µM at CDK4/Cyclin D3 complex (Table 2) and 2.6 µM at CDK2/Cyclin A complex (Table 2).

Turning to `COc1cc(Nc2nc(N)c(C3=N[C@H](Cc4ccccc4)CO3)s2)cc(OC)c1OC` [I(2), R-5-(4-Benzyl-4,5-dihydro-oxazol-2-yl)-N^2-(3,4,5-trimethoxyl-phenyl)-thiazole-2,4-diamine], the inhibition at 100 µM on CDK4/Cyclin D3 complex (Table 2) was under 0%.

`COc1cc(Nc2nc(N)c(C3=NC(C(C)OCc4ccccc4)CO3)s2)cc(OC)c1OC` [I(4), 5-{(4R)-[(1R)-Benzyloxy-ethyl]-4,5-dihydro-oxazol-2-yl}-N^2-(3,4,5-trimethoxyl-phenyl)-thiazole-2,4-diamine]: the inhibition at 100 µM at CDK4/Cyclin D3 complex (Table 2) is under 0%.

`CN(C)CCNC(=O)c1csc(-c2sc(Nc3ccc(S(N)(=O)=O)cc3)nc2N)n1` [N(2), 4-Amino-2′-(4-sulfamoyl-phenylamino)-[2,5′]-bithiazoyl-4-carboxylic acid (2-dimethylamino-ethyl)-amide]: the results for the Ki at CDK4/Cyclin D3 complex (Table 3) and on CDK2/Cyclin A complex (Table 3) were 1.3 µM and 0.12 µM, respectively.

As for `COc1cc(Nc2nc(N)c(-c3cccc(Br)n3)s2)cc(OC)c1OC` [G(6), 5-(6-Bromo-pyridin-2-yl)-2-N-(3,4,5-trimethoxy-phenyl)-thiazole-2,4-diamine], the Ki on CDK4/Cyclin D3 complex (Table 2) is 100 µM.

For `Nc1nc(Nc2ccc(S(N)(=O)=O)cc2)sc1C1=NC2(O)OCCC2S1` (stereo not shown) [H(5), 4-[4′-Amino-4-hydroxy-5-(2-hydroxy-ethyl)-3′H-1′-[2,5]bithiazolyl-2′-ylamino]-benzenesulfonamide], the inhibition at 100 µM at CDK4/Cyclin D3 complex (Table 2) was under 0%. The “CDK2 % inhibition @ 100” value on CDK2/Cyclin A complex (Table 2, at 100 (printed 100 or 100 μM)) is 29% @.

In the case of `CN(C)CCNS(=O)(=O)c1ccc(Nc2nc(N)c(-c3nc(C(=O)c4ccccc4)cs3)s2)cc1` [A(71), 4-(4′-Amino-4-benzoyl-[2,5′]bithiazolyl-2′-ylamino)-N-(2-dimethylamino-ethyl)-benzenesulfonamide], the Ki on CDK4/Cyclin D3 complex (Table 2) stood at 190 µM; on CDK2/Cyclin A complex (Table 2), 29 µM.

Turning to `CCCCCc1ccc(-c2csc(-c3sc(Nc4ccc(S(N)(=O)=O)cc4)nc3N)n2)cc1`, the inhibition at 1 µM is -7.2% on CDK4/Cyclin D3 complex (setting [1]) and -9.9% on CDK2/Cyclin A complex (setting [1]). In addition, at FL-CHK1, the inhibition at 20 µM is 10.8%.

Regarding `Nc1nc(N)c(-c2nc(C(=O)c3ccccc3)cs2)s1` [E(4), (2′,4′-Diamino-[2,5′]bithiazolyl-4-yl)-phenyl-methanone], the values for the Ki at CDK4/Cyclin D3 complex (Table 2) and on CDK2/Cyclin A complex (Table 2) were 21 µM and 8.8 µM, respectively.

With `Nc1nc(Nc2ccc(S(N)(=O)=O)cc2)sc1-c1nc(O)c(-c2ccc(O)cc2)s1` [H(2), 4-[4′-Amino-4-hydroxy-5-(4-hydroxy-phenyl)-[2,5′]bithiazolyl-2′-yl-amino]-benzenesulfonamide], the results for the Ki at CDK4/Cyclin D3 complex (Table 2) and at CDK2/Cyclin A complex (Table 2) were 11 µM and 10.4 µM, respectively.

Turning to `Nc1cccc(-c2csc(-c3sc(Nc4ccc(S(N)(=O)=O)cc4)nc3N)n2)c1` [C(3)], the values for the Ki on CDK4/Cyclin D3 complex (Table 2) and on CDK2/Cyclin A complex (Table 2) were 4.6 µM and 2.7 µM, respectively.

Consider `Nc1cccc(C(=O)c2csc(-c3sc(Nc4ccc(S(N)(=O)=O)cc4)nc3N)n2)c1` [A(72), 4-[4-Amino-4-(3-amino-benzoyl)-[2,5′]bithiazoyl-2′-ylamino]-benzenesulfonamide], for which the inhibition at 5 µM at CDK4/Cyclin D3 complex (Table 2) came to 48%. In addition, the Ki at CDK2/Cyclin A complex (Table 2) was 0.16 µM.

In the case of `CC(=O)Nc1nc(N)c(-c2nc(C(=O)c3ccccc3)cs2)s1` [F(16), N-(4′-Amino-4-benzoyl-[2,5′]bithiazolyl-2′-yl)-acetamide], at CDK4/Cyclin D3 complex (Table 3), the inhibition at 5 µM stood at 35%. Further, the Ki at CDK2/Cyclin A complex (Table 3) came to 0.48 µM.
